Data: US12319967B2, “Methods and compositions for diagnosing and treating prostate cancer based on long noncoding RNA overlapping the LCK gene that regulates prostate cancer cell growth” (University of Virginia Patent Foundation, priority 2019, dated 2025)
Entries after “also recorded” stand apart in the source; their conditions may differ. Where a SMILES comes first, the peptide text is derived from it. The star is where a group is joined. Cbz = O=C(OCc1ccccc1)*

What was measured:
Type in all cases: cell-based, human
[1] = test system: LNCaP, C4-2, and Rv1 cells; test: CyQuant growth assay 7 days after viral transduction; settings: day 7; for effect on cell growth: absence of hormone, Rv1 cells
Description: FIG. 5A illustrates the gene structure of LCK and location of each shRNA targeting LCK. MISSION shRNAs targeting human LCK (NM_005356) and the pLKO vector control were purchased from ThermoFisher. Each shRNA was validated for efficiency of LCK or HULLK knockdown in Jurkat and PCa cells by qPCR. (C) The results of CyQuant Assay measuring DNA content as a surrogate for cell number 7 days after shRNA transduction is shown in FIG. 5C. Growth was compared to untreated empty vector control and the values were averaged across biological replicates. Error bars represent standard error of the mean. The relative effect of four independent shRNAs on cell growth in LNCaP, C42, and Rv1 cells in the absence or presence of 0.05 nM R1881, n=3. FIG. 5D plots the data for the relative effect of HULLK overexpression on cell growth in LNCaP, C42, and Rv1 cells in the absence or presence of 0.05 nM R1881, n=3. Statistical analysis was performed using ANOVA and Tukey test.
CyQuant Growth Assays: Assay was performed as previously described (18). Briefly, shRNA or pLKO control virus was added to 1 μg/ml fibronectin-coated 96 well plates. Cells were plated in RPMI-1640 plus 5% CSS with vehicle, 0-0.05 nM R1881, and/or 10 μM Enzalutamide (Selleck Chemicals). Quantification was performed on Day 7 using a BioTek Synergy 2 plate reader.
To explore the functional role of HULLK in PCa, the effects of HULLK knockdown on PCa cell growth was examined. LNCaP, C4-2, and Rv1 cells were transduced with lentiviral particles expressing four independent shRNAs specific for LCK or pLKO empty vector control in the presence or absence of 0.05 nM R1881. Two shRNAs were targeting the carboxy-terminal of LCK (shLCK-3 and shLCK-4) and should decrease HULLK levels; and two shRNAs were directed toward the amino-terminal (shLCK-1 and shLCK-2) and should not affect HULLK expression (FIG. 5A). […] As a control, all four shRNAs efficiently knocked LCK down 60-90% in Jurkat cells. Seven days following viral transduction, cellular growth was measured using CyQuant, which uses DNA content as a surrogate for cell number. In the absence of hormone, the four shRNAs had no dramatic effects on growth in LNCaP or C4-2 cells (FIG. 5C).
The complement experiment of evaluating the effects of overexpressing HULLK on cell growth was also performed. LNCaP, C4-2, and Rv1 cells were transduced with lentivirus expressing either vector or HULLK constructs in the presence or absence of 0.05 nM R1881, and proliferation was calculated seven days following viral transduction.

[2] = test system: HULLK; test: qPCR of HULLK (LCK 3'UTR / exon 13) transcript levels in response to hormone and AR, p300 or Brd4 inhibition
Method: (§1) FIGS. 2A through 2E illustrate that HULLK is an AR-regulated lncRNA. […] LNCaP and C42 cells were transduced with two independent shRNAs to LCK and treated with 0-1 nM R1881. RNA was collected on Day 4 and LCK transcript levels were determined using LCK primers targeting the 3′UTR. […] LNCaP and C42 cells were seeded for 48 hrs, and then, treated with 1 nM R1881 in the presence or absence of 10 μM enzalutamide. RNA was collected 24 hrs after treatment and LCK transcript levels were determined by qPCR using LCK primers targeting the 3′UTR. C4-2, DU145, and PC3 cells were seeded in CSS media for 48 hrs, and then, treated with 1 nM R1881 for 16 hrs. RNA was collected and LCK transcript levels were determined using LCK primers targeting the 3′UTR. […] FIG. 2E illustrates that Brd4 inhibition reduces the hormone induction of HULLK, n=3. LNCaP, C42, or Jurkat cells were seeded for 48 hrs in the appropriate growth media, and then, treated with 1 nM R1881 in the presence or absence of 0.3 μM A-485 or 0.1 μM JQ1. RNA was collected 24 hrs after treatment and LCK transcript levels were determined by qPCR using LCK primers targeting exon 13 or 3′UTR. PSA and TMPRSS2 transcripts were determined to verify the efficacy of p300 and Brd4 inhibition.
FIGS. 7A and 7B illustrate the regulation of HULLK by the AR in breast cancer cells. […] LNCaP, MCF7, BT549, and MDA-MD-231 cells were seeded in the appropriate growth media, and whole cell lysates were collected 48 hrs later and blotted for AR21 and ERK1/2. […] MCF7, BT549, and MDA-MB-231 cells were seeded in CSS media for 48 hrs, and then, treated with 1 nM R1881 for 16 hrs. RNA was collected and LCK transcript levels were determined using LCK primers targeting the 3′UTR, n=3.
Cell Culture and Reagents. LNCaP and C4-2 cells (a gift from Dr. L. W. K. Chung) were grown in DMEM:F12 (Invitrogen) with 5% Non-Heat-Inactivated serum (Gemini) and 1% Insulin-Transferrin-Selenium-Ethanolamine (ThermoFisher). CWR22Rv1 (Rv1), VCaP, PC3 (gifts from Drs. Steven Balk, Karen Knudsen, and Chung, respectively), WMPY-1 (ATCC), MCF7, BT549 and MDA-MB-231 (gifts from Dr. Amy Bouton) were grown in DMEM (Invitrogen) with 10% Heat-Inactivated serum. DU145 (a gift from Dr. Chung), PANC1 (a gift from Dr. J. Thomas Parsons), HeLa and Jurkat cells (gifts from Dr. Tim Bender) were grown in RPMI-1640 (Invitrogen) with 10% Heat-Inactivated serum. LHS cells (a gift from Dr. William Hahn) were grown in ProstaLife Epithelial Cell Medium (Lifeline). RWPE-1 (ATCC) cells were grown in Keratinocyte-Serum-Free Media (Invitrogen). For growth and RNA experiments, phenol-red free DMEM:F12 media with 5% Charcoal-Stripped Serum (CSS) (Gemini) was used.
RNA Isolation, qPCR and ddPCR: RNA was collected using TRIzol and quantitated using a NanoDrop 2000 UV-Vis Spectrophotometer (ThermoFisher). cDNA was synthesized using Superscript IV VILO cDNA synthesis kit (Invitrogen). Quantitative real-time PCR (qPCR) was performed as previously described (17,18). Droplet digital PCR (ddPCR) was executed according to the manufacturer's protocol (Bio-Rad).
To assess whether this lncRNA is modulated by hormone, transcript levels of this lncRNA were quantified by qPCR using 3′UTR primers in LNCaP and C4-2 cells transduced in the presence of increasing concentrations of R1881 (FIG. 2A). […] This increase was inhibited in the presence of two independent LCK shRNAs in both cell lines.
This hormone regulation was confirmed by measuring transcript amounts in LNCaP and C4-2 cells treated with vehicle or R1881 in the presence or absence of the anti-androgen enzalutamide (FIG. 2B). As expected, there was an 8-fold and 12-fold R1881-induced increase in LCK 3′UTR transcript levels in LNCaP and C4-2 cells, respectively. […] Androgen deprivation influenced message levels negligibly in LNCaP cells, but decreased transcript amounts of this lncRNA by approximately 2.9-fold in C4-2 cells (FIG. 2B, C4-2 vehicle vs. media). […]

[3] = test system: PSA and TMPRSS2 transcripts; test: qPCR of PSA and TMPRSS2 transcripts to verify efficacy of p300 inhibition; settings: 0.3 μM A-485 + 1 nM R1881
Method: as §1, with “inhibition. […]” for “inhibition.”

[4] = test system: AR; test: AR protein and message levels 48 hrs after HULLK knockdown or overexpression; settings: LNCaP and C4-2 cells; 48 hrs after transduction
Method: LNCaP and C4-2 cells were transduced with vector, shLCK (n-term), or shLCK (c-term) in the appropriate growth media, and whole cell lysates were collected 48 hrs later and blotted for AR21 and ERK1/2, n=3. […] LNCaP and C4-2 cells were transduced with vector or HULLK in the appropriate growth media, and whole cell lysates were collected 48 hrs later and blotted for AR21 and α-tubulin, n=3. RNA was collected and AR transcript levels were determined using AR primers targeting the DNA binding domain, n=3.
Conversely, studies were conducted to determine whether HULLK modulates AR expression. LNCaP and C4-2 cells were transduced with vector, HULLK, or shRNAs targeting LCK (n-term) (FL-LCK) or LCK (c-term) (HULLK), and AR protein and message levels were examined 48 hrs after transduction.

[5] = test system: p53; test: Western blot after proteasome inhibition with MG132; settings: LNCaP cells; 10 μM MG132
Method: (§2) FIGS. 1A to 1D illustrate the discovery of a novel lncRNA in prostate cancer cells. […] LCK protein was immunoprecipitated from 1 mg cell lysate from LNCaP, C4-2, and Jurkat cells cultured in the appropriate growth media for 48 hrs and treated with 1 nM R1881 or starved of hormone for 24 hrs, separated by 10% SDS-PAGE, and immunoblotted with LCK antibodies targeting the amino- and carboxy-terminals. Representative blots are shown, n=3. […] LNCaP cells were seeded and treated with 10 μM MG132 in the presence or absence of R1881 for the indicated timepoints. Cell lysates were blotted for LCK (c-terminal), LCK (n-terminal), p53, ERK1/2, Ran, and Histone H3. Representative blots are shown, n=3. Representative gel is shown, n=3. LNCaP cells were grown in the absence or presence of 1 nM R1881 for 24 hrs. RNA was collected using the Qiagen RNeasy kit. […]
(§3) To determine whether the lack of LCK expression was due to proteasomal degradation, LCK protein levels were examined in the presence of the proteasome inhibitor MG132 (FIG. 18). […] Furthermore, no truncated forms of LCK were detected when the whole western blot membrane was probed from 75 kD to 10 kD with either c- or n-terminal LCK antibodies. […] Therefore, a ncRNA may play a role in the growth effects measured in the kinome screen.

[6] = test system: LCK protein; test: Western blot for LCK protein after proteasome inhibition with MG132; settings: LNCaP cells treated with FBS, CSS, or 1 nM R1881; 10 μM MG132; any timepoint
Method: as §2, §3

## shLCK-4: shRNA targeting the carboxy-terminal of LCK (HULLK), nucleotide sequence SEQ ID NO: 26 (CCGGTCACATGGCCTATGCACATATCTCGAGATATGTGCATAGGCCATGTGATTTTTG)
[1]
  effect on cell growth: statistically significant decrease

## CNC(=O)Nc1ccc2c(c1)CC[C@@]21OC(=O)N(CC(=O)N(Cc2ccc(F)cc2)[C@@H](C)C(F)(F)F)C1=O [A-485]
[2]; 0.3 μM A-485 + 1 nM R1881, 24 hrs
  effect on hormone-induced increase in HULLK transcript levels: significantly opposed the hormone-induced increase
[2]; 0.3 μM A-485 without R1881, LNCaP, C4-2, Jurkat cells
  effect on HULLK expression, inhibitor alone: negligible effects
[3]
  PSA and TMPRSS2 message in the presence of hormone and p300 inhibitor: sufficiently blocking its target

## HULLK: Hormone Upregulated lncRNA within LCK, overexpressed from lentiviral expression vector PLX301
[1]; 0.05 nM R1881, LNCaP, C4-2, and Rv1 cells
  proliferation of HULLK-overexpressing cells compared to vector control cells: significantly increased proliferation
[1]; androgen-deprived media, LNCaP, C4-2, and Rv1 cells
  growth of HULLK-overexpressing cells versus vector-expressing cells: did not provide a growth advantage
[4]
  AR expression after overexpression of HULLK: not notably altered

## CC(C)C[C@@H](C=O)NC(=O)[C@H](CC(C)C)NC(=O)[C@H](CC(C)C)NC(=O)OCc1ccccc1 [MG132] (Cbz-Leu-Leu-Leu-aldehyde)
[5]
  p53 protein level: elevated
[6]
  LCK protein detection: still not observed

## Cc1sc2c(c1C)C(c1ccc(Cl)cc1)=N[C@@H](CC(=O)OC(C)(C)C)c1nnc(C)n1-2 [JQ1]
[2]; 0.1 μM JQ1 + 1 nM R1881, 24 hrs
  HULLK expression in the presence of hormone and JQ1 compared to hormone alone: significantly decreased

## shLCK-3: shRNA targeting the carboxy-terminal of LCK (HULLK), nucleotide sequence SEQ ID NO: 25 (CCGGGGGATCCTGCTGACGGAAATTCTCGAGAATTTCCGTCAGCAGGATCCCTTTTTG)
[1]
  effect on cell growth: statistically significant decrease

## CNC(=O)c1ccc(N2C(=S)N(c3ccc(C#N)c(C(F)(F)F)c3)C(=O)C2(C)C)cc1F [Enzalutamide]
[2]; LNCaP and C4-2 cells, 1 nM R1881 + 10 μM enzalutamide, 24 hrs
  effect on hormone-mediated increase in LCK 3'UTR transcript (HULLK): blocked the hormone-mediated increase; also recorded: blocks the androgen-induced expression of HULLK
